Data reported in PMC5116268 (Journal of pharmacological and toxicological methods, 2016).

Tested on: GABAA receptor (native mixed population in iCell Neurons)
Assay: automated patch clamp
Assay type: cell-based, Homo sapiens

SMILES | EC50 [nM]
CN1C(=O)CN=C(c2ccccc2)c2cc(Cl)ccc21 [diazepam] | 420 ± 120
COc1ccc(-n2nc3c4ccc(OC)cc4[nH]cc-3c2=O)cc1 [CW-04-020] | 230 ± 70
C#Cc1ccc2c(c1)C(c1ccccn1)=NCc1c(C(=O)OCC)ncn1-2 [HZ166] | 1560 ± 830
